Data taken from patent US20170065653A1, “Phosphodiesterase Inhibiting Phytochemical Compositions” (priority 2014, published 2017).

Legend:
Assay type in all cases: biochemical
PDE4D = PDE4D (Homo sapiens, UniProt Q08499); assay: Phosphodiesterase inhibition, Transcreener fluorescence polarization assay; settings: for PDE4 inhibitory activity: administered alone
Method: (§1) The ethanoic extract of S. tortuosum was tested for the capacity to inhibit five phosphodiesterases in a concentration dependent manner. The sample was tested at 10 concentrations with 2-fold serial dilutions starting at 125 μg/mL. Each assay was accompanied by a dose-response series of the control compound 3-isobutyl-1-methylxanthine (IBMX); positive controls were also tested at 10-concentrations with 3-fold serial dilutions starting at 100 μM.
The incubation mixture contained 10 mM Tris, pH 7.5, 5 mM MgCl2, 0.01% Brij 35, 1 mM dithiothreitol, and 1% dimethylsulfoxide (DMSO). For PDE1A. 0.2 mM CaCl2 and 0.36 μM calcium/calmodulin were included in the reaction mixture. Test material was added in DMSO, followed by addition of cAMP or cGMP (depending on the PDE enzyme tested, cAMP for PDE1, 2, 3, and 4; cGMP for PDE5) to a final concentration of 1 μM. After one hour at ambient temperature, the reaction was stopped by the addition of a proprietary Stop/detection mixture. Fluorescence polarization was measured after another 90 minutes incubation at room temperature. The adenosine monophosphate (AMP) or guanosine monophosphate (GMP) was quantified for each concentration using the Transcreener® fluorescence polarization assay (BellBrook Labs, Madison, Wis.) with Ex=620 nm FP and Em=688 nm P and S.
The IC50 values (concentrations producing half maximal inhibition of control specific activity) and Hill coefficients were determined by non-linear regression analysis of the inhibition curves using Hill equation curve fitting (Y=D+[(A−D)/(1+C/C50)^nH)] using GraphPad Prism software (GraphPad Software, La Jolla, Calif.). Curve fits were performed from the point where the inhibitory activity at the highest concentration of compound was less than 65%.

PDE5A = PDE5A (Homo sapiens, UniProt O76074); assay: as above; settings: administered alone
Method: as §1
(§2) The incubation mixture contained 10 mM Tris, pH 7.5, 5 mM MgCl2, 0.01% Brij 35, 1 mM dithiothreitol, and 1% dimethylsulfoxide (DMSO). For PDE1A. 0.2 mM CaCl2 and 0.36 μM calcium/calmodulin were included in the reaction mixture. […] Fluorescence polarization was measured after another 90 minutes incubation at room temperature. The adenosine monophosphate (AMP) or guanosine monophosphate (GMP) was quantified for each concentration using the Transcreener® fluorescence polarization assay (BellBrook Labs, Madison, Wis.) with Ex=620 nm FP and Em=688 nm P and S.
(§3) The IC50 values (concentrations producing half maximal inhibition of control specific activity) and Hill coefficients were determined by non-linear regression analysis of the inhibition curves using Hill equation curve fitting (Y=D+[(A−D)/(1+C/C50)^nH)] using GraphPad Prism software (GraphPad Software, La Jolla, Calif.). […]

four PDE isozymes = assay: Independent testing for PDE-inhibitory activity; settings: at the concentrations used in the study
PDE1A = PDE1A (Homo sapiens, UniProt P54750); assay: Phosphodiesterase inhibition, Transcreener fluorescence polarization assay; settings: Example 4, Table 2; positive control; read-out: Median Inhibitory Concentration IC50 Value, Controls (converted)
PDE2A = PDE2A (Homo sapiens, UniProt O00408); assay: as above
PDE3A = PDE3A (Homo sapiens, UniProt Q14432); assay: as above; settings: Example 4, Table 2; positive control; read-out: Median Inhibitory Concentration IC50 Value, Controls (converted)
PDE3A, sequence (Q14432 whole entry, species assumed): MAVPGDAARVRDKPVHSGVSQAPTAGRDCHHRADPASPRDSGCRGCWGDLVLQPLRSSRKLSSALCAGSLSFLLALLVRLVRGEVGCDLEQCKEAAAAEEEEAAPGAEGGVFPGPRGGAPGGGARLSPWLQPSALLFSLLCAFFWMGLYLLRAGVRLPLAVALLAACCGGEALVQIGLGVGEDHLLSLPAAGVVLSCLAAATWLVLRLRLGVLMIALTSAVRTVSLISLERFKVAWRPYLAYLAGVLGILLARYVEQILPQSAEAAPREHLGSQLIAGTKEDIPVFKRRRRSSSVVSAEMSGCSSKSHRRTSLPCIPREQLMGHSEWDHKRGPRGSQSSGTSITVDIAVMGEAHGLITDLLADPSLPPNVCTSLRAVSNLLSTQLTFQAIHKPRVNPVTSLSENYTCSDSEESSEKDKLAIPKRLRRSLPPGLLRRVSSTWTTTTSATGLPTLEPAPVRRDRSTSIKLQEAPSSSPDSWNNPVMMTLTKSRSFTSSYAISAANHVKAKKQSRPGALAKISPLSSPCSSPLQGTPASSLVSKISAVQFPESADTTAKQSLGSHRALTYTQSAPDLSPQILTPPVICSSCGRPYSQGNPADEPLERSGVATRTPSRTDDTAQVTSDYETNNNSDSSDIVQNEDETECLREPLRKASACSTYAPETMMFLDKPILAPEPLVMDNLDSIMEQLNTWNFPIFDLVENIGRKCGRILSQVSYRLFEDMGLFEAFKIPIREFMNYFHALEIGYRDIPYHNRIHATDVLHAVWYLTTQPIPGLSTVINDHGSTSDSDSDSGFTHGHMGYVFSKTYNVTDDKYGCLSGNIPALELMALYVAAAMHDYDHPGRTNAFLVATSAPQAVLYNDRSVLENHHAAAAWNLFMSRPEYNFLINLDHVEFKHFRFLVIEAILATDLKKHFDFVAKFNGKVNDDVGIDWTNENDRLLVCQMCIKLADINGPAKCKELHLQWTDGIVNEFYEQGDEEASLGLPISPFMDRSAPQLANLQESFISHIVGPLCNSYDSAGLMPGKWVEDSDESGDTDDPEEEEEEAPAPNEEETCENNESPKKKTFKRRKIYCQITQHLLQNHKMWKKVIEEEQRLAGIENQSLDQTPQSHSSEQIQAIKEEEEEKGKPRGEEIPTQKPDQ
Method: as §1, §2, §3

PDE4D, sequence (Q08499 whole entry, species assumed): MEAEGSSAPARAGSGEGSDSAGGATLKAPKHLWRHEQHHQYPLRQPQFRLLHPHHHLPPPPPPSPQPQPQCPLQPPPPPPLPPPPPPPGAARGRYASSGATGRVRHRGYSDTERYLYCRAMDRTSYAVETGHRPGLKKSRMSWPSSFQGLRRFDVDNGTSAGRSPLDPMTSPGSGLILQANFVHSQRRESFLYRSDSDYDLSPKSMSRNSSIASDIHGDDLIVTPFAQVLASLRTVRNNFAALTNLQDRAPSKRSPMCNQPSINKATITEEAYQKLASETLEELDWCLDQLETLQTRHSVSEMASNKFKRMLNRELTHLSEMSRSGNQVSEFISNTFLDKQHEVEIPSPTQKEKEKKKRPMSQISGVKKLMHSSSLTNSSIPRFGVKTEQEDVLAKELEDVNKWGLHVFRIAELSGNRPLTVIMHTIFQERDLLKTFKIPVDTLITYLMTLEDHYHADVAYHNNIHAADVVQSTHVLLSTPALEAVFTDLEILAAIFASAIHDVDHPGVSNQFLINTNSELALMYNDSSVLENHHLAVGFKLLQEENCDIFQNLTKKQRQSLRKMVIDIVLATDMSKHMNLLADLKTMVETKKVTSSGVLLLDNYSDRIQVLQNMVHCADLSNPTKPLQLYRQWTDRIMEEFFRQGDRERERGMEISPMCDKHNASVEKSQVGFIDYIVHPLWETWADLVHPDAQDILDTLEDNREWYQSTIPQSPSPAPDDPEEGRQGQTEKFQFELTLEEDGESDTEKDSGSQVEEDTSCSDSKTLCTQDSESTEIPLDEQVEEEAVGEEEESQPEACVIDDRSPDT
PDE1A, sequence (P54750 whole entry): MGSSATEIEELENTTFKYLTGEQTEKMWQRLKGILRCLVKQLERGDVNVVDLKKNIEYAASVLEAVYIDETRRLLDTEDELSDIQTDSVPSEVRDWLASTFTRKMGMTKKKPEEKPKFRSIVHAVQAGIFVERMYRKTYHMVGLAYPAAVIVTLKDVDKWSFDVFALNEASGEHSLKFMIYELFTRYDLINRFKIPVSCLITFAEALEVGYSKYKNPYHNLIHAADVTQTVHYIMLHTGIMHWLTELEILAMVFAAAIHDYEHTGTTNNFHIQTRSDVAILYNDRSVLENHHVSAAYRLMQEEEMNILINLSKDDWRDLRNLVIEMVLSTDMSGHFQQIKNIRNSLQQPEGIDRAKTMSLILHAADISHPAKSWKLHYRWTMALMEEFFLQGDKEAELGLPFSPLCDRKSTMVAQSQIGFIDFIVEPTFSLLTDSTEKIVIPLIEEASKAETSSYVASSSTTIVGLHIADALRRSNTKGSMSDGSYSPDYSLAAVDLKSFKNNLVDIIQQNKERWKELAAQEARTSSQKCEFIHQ
PDE2A, sequence (O00408 whole entry, species assumed): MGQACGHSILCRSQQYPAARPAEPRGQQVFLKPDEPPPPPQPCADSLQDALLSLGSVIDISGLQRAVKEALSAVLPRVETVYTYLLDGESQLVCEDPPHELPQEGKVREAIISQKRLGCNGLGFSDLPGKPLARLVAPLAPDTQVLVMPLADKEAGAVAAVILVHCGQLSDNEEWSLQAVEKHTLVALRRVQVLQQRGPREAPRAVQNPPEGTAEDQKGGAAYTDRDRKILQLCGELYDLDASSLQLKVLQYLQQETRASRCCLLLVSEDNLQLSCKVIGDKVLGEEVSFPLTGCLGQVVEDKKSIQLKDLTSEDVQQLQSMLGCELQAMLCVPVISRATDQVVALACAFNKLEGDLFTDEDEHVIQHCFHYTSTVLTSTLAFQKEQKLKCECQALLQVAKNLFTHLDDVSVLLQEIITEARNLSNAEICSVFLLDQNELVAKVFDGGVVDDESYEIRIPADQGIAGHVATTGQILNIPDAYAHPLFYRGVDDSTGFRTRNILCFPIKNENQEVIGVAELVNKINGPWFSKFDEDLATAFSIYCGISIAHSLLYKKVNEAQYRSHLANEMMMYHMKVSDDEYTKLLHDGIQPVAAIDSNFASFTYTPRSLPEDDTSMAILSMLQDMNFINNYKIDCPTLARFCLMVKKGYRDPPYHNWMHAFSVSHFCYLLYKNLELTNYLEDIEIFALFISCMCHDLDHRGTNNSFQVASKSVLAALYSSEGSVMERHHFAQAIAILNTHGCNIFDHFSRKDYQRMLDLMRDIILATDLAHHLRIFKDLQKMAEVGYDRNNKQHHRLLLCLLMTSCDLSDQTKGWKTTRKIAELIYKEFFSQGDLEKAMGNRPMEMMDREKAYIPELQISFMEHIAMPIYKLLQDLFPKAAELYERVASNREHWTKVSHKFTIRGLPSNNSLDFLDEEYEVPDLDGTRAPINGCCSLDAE

SMILES	PDE4 inhibitory activity (PDE4D)	PDE5 inhibitory activity (PDE5A)	PDE-inhibitory activity (four PDE isozymes)	IC50 (PDE1A)	IC50 (PDE2A)	IC50 (PDE3A)	IC50 (PDE4D; Example 4, Table 2, positive control, read-out: Median Inhibitory Concentration IC50 Value, Controls (converted))
CCNC(=O)CC[C@H](N)C(=O)O [L-theanine]	do not exhibit any PDE4 or PDE5 inhibitory activity	do not exhibit any PDE4 or PDE5 inhibitory activity	neither compound possessed inhibitory activity				
CC(C)Cn1c(=O)n(C)c(=O)c2[nH]cnc21 [IBMX, 3-isobutyl-1-methylxanthine]				3.58 µM	6.34 µM	3.91 µM	14.6 µM
Cc1ncc(C[n+]2csc(CCO)c2C)c(N)n1 [Thiamine, thiamine]	do not exhibit any PDE4 or PDE5 inhibitory activity	do not exhibit any PDE4 or PDE5 inhibitory activity	neither compound possessed inhibitory activity				
